The values that follow come from patent US10071994B2, “N-sulfonyl homoserine lactone derivatives, preparation method and use thereof” (priority 2014, dated 2018).

As usually defined, the IC50 is the point on the concentration scale where inhibition reaches its midpoint.

One assay concerns C. violaceum CV026. The assay can be described thus: Preliminary screening of bacterial quorum sensing regulatory (agonistic/inhibitory) activity on LB plate. As to conditions: 1 μl of 0.065M DMSO solution spotted on LB plate with C. violaceum CV026, 30° C., 16-18 h; agonist: purple induced; inhibitor: white circle in presence of inducer C6-HSL. The format is cell-based, Chromobacterium violaceum. The method, then:
1.1 Preparation work: compounds to be tested (Compounds 1-32 prepared in Example 1-32 and Intermediates 1-3) were weighed and then separately dissolved in 200 μl DMSO (dimethyl sulfoxide) to prepare a solution at a concentration of 0.065M. 5.0 mg inducer, N-hexanoyl homoserine lactone (C6—HSL, purchased from Sigma Company) was weighed and dissolved in 200 μl DMSO (at a concentration of 0.125M), the compounds and the inducer were all stored at 4° C. for further use. C. violaceum CV026 (donated by Professor McLean J C from Texas State University, the bacterium is the Tn-5 mutant of the wild type Chromobacterium violaceum ATCC31532; see Latifi, A., et al., Mol. Microbiol, 17, 333-343(1995) and Winson, M. K., et al., Proc. Natl. Acad. Sci. USA, 92, 9427-9431(1995)) was cultured under shaking in a shaker at 30° C., 200 rpm.
1.2 Method for preliminary screening of compounds having agonistic activity: 400 μl C. violaceum CV026 was added to 5 ml melted semi-solid LB culture medium (1% tryptone, 1% NaCl, and 0.5% yeast extract), and mixed homogeneously; the mixed culture medium was poured into a solid LB plate; when the mixed culture medium was solidified on the plate; 1 μl sample of the dissolved compound to be tested (Compounds 1-32 in Examples 1-32) was spotted on the plate; when the sample was dried in air, the plate was put in a 30° C. oven upside down and cultured for a period of 16-18 h. The agonistic activity of the compound was determined depending on whether purple strain was induced for C. violaceum CV026 on LB plate as well as the density of purple strain.
1.3 Method for preliminary screening of compounds having inhibitory activity: the inducer C6-HSL was diluted gradiently to 1000 times by means of 2-fold dilution; 15 μl of the diluted inducer and 400 μl C. violaceum CV026 in exponential phase were mixed homogeneously and then added to a 5 ml melted semi-solid LB culture medium; the mixture of inducer, C. violaceum, and semi-solid LB culture medium were poured onto a solid LB plate; when the mixture was solidified on the plate, 1 μl sample of the dissolved compound to be tested (Compounds 1-32 in Examples 1-32 and Intermediates 1-3) was spotted on the plate; when the sample was dried in air, the plate was put in a 30° C. oven upside down and was cultured for a period of 16-18 h. The inhibitory activity of a compound was preliminary determined depending on the size of the white circle appeared after C. violaceum CV026 was inhibited on LB plate.
It is found, after preliminary screening, that 17 compounds according to the invention have bacterial quorum sensing regulatory activity, and the screening result was shown in Table 1.
Take `O=C(Nc1ccc(S(=O)(=O)N[C@H]2CCOC2=O)cc1)c1ccoc1` [Compound 12, (s)-N-(4-(N-(2-oxotetrahydrofuran-3-yl)sulfamoyl)phenyl)furan-3-carboxamide]: the “Regulatory activity (bacterial quorum sensing)” value (“Regulatory activity” below) was “−”.

As to `O=C(Nc1ccc(S(=O)(=O)N[C@H]2CCOC2=O)cc1)c1cccs1` [Compound 1, (s)-N-(4-(N-(2-oxotetrahydrofuran-3-yl)sulfamoyl)phenyl)thiophene-2-carboxamide], the “Regulatory activity” value is reported as “−”.

As for `O=C(Nc1ccc(S(=O)(=O)N[C@H]2CCOC2=O)cc1)c1cc(Br)cs1` [Compound 6, (s)-4-bromo-N-(4-(N-(2-oxotetrahydrofuran-3-yl)sulfamoyl)phenyl)thiophene-2-carb oxamide], the “Regulatory activity” value is reported as “−”.

For the molecule `Cc1occc1C(=O)Nc1ccc(S(=O)(=O)N[C@H]2CCOC2=O)cc1` [Compound 15, (s)-2-methyl-N-(4-(N-(2-oxotetrahydrofuran-3-yl)sulfamoyl)phenyl)furan-3-carboxamide], the “Regulatory activity” value is listed as “−”.

As to `Br.NC1CCOC1=O` (stereo not shown) [Intermediate 1, (L)-homoserine lactone hydrobromide], the “Regulatory activity” value was “+”.

Consider `O=C(Nc1ccc(S(=O)(=O)N[C@H]2CCOC2=O)cc1)c1ccco1` [Compound 11, (s)-N-(4-(N-(2-oxotetrahydrofuran-3-yl)sulfamoyl)phenyl)furan-2-carboxamide], for which the “Regulatory activity” value is on record as “±”.

On to `O=C(Nc1ccc(S(=O)(=O)N[C@H]2CCOC2=O)cc1)c1sccc1Br` [Compound 10, (s)-3-bromo-N-(4-(N-(2-oxotetrahydrofuran-3-yl)sulfamoyl)phenyl)thiophene-2-carboxamide], for which the “Regulatory activity” value is given as “−”.

Take `CC(=O)Nc1ccc(S(=O)(=O)N[C@H]2CCOC2=O)cc1` [Intermediate 2, (s)-N-(4-(N-(2-oxotetrahydrofuran-3-yl)sulfamoyl)phenyl)acetamide]: the “Regulatory activity” value was “−”.

Consider `O=C(Nc1ccc(S(=O)(=O)N[C@H]2CCOC2=O)cc1)c1sccc1Cl` [Compound 9, (s)-3-chloro-N-(4-(N-(2-oxotetrahydrofuran-3-yl)sulfamoyl)phenyl)thiophene-2-carb oxamide], for which the “Regulatory activity” value is recorded as “−”.

Take `O=C(Nc1ccc(S(=O)(=O)N[C@H]2CCOC2=O)cc1)c1ccc(Cl)s1` [Compound 3, (s)-5-chloro-N-(4-(N-(2-oxotetrahydrofuran-3-yl)sulfamoyl)phenyl)thiophene-2-carb oxamide]: the “Regulatory activity” value is listed as “−”.

On to `O=C(Cc1ccc(Cl)cc1)Nc1ccc(S(=O)(=O)N[C@H]2CCOC2=O)cc1` [Compound 21, (S)-4-chloro-N-(4-(N-(2-oxotetrahydrofuran-3-yl)sulfamoyl)phenyl)benzeneacetamide], for which the “Regulatory activity” value is “−”.

In the case of `Cc1csc(C(=O)Nc2ccc(S(=O)(=O)N[C@H]3CCOC3=O)cc2)c1` [Compound 7, (s)-4-methyl-N-(4-(N-(2-oxotetrahydrofuran-3-yl)sulfamoyl)phenyl)thiophene-2-carboxamide], the “Regulatory activity” value is given as “−”.

`O=C(Nc1ccc(S(=O)(=O)N[C@H]2CCOC2=O)cc1)c1ccc(Br)s1` [Compound 4, (s)-5-bromo-N-(4-(N-(2-oxotetrahydrofuran-3-yl)sulfamoyl)phenyl)thiophene-2-carb oxamide]: the “Regulatory activity” value is recorded as “−”.

Turning to `O=C(Nc1ccc(S(=O)(=O)N[C@H]2CCOC2=O)cc1)c1ccsc1` [Compound 2, (s)-N-(4-(N-(2-oxotetrahydrofuran-3-yl)sulfamoyl)phenyl)thiophene-3-carboxamide], the “Regulatory activity” value is “−”.

Regarding `O=C(Cc1ccc(F)cc1)Nc1ccc(S(=O)(=O)N[C@H]2CCOC2=O)cc1` [Compound 20, (S)-4-fluoro-N-(4-(N-(2-oxotetrahydrofuran-3-yl)sulfamoyl)phenyl)benzeneacetamide], the “Regulatory activity” value is recorded as “−”.

On to `O=C(Nc1ccc(S(=O)(=O)NC2CCOC2=O)cc1)c1ccc[nH]1` (stereo not shown) [Compound 17, (s)-1H—N-(4-(N-(2-oxotetrahydrofuran-3-yl)sulfamoyl)phenyl)pyrrole-2-carboxamide], for which the “Regulatory activity” value is given as “−”.

In the case of `Cc1ccsc1C(=O)Nc1ccc(S(=O)(=O)N[C@H]2CCOC2=O)cc1` [Compound 8, (s)-3-methyl-N-(4-(N-(2-oxotetrahydrofuran-3-yl)sulfamoyl)phenyl)thiophene-2-carboxamide], the “Regulatory activity” value was “−”.

As for `O=C(Nc1ccc(S(=O)(=O)N[C@H]2CCOC2=O)cc1)c1ccc([N+](=O)[O-])o1` [Compound 13, (s)-5-nitro-N-(4-(N-(2-oxotetrahydrofuran-3-yl)sulfamoyl)phenyl)furan-2-carboxamide], the “Regulatory activity” value is listed as “−”.

Consider `O=C(Cc1ccccc1F)Nc1ccc(S(=O)(=O)N[C@H]2CCOC2=O)cc1` [Compound 27, (S)-2-fluoro-N-(4-(N-(2-oxotetrahydrofuran-3-yl)sulfamoyl)phenyl)benzeneacetamide], for which the “Regulatory activity” value is “+”.

Another assay has as its system C. violaceum CV026. The assay can be described thus: Measurement of IC50 of compounds having an inhibitory effect on C. violaceum quorum sensing (purple pigment absorbance at 585 nm). The format is cell-based. The following applies: Chromobacterium violaceum, CV026, read-out: IC50 of compounds having bacterial quorum sensing inhibitory activity. The method, then: 2. Measurement of IC50 of Compounds Having an Inhibitory Effect on C. violaceum Quorum Sensing
2.1 The wells of a 12-well plate were marked as initial concentration group, 2, 4, 8, 16, 32, 64, 128, and 256 fold diluted group, DMSO group, and a blank control group from left to right and from up to bottom, respectively.
2.2 The monoclonal C. violaceum CV026 grew on LB solid plate was cultured to exponential phase in a 5 ml fresh LB liquid culture medium, and 50 μl was then taken for seeding in a 5 ml LB culture medium, and cultured until the optical density OD value was about 1.0. The culture was then mixed homogeneously with LB culture medium at a ratio of 1:9 (at an OD of about 0.15), and added to a 12-well plate in an amount of 2 ml/well.
2.3 The compounds having quorum sensing inhibitory activity in preliminarily screening were dissolved in DMSO (at a concentration of 0.065M), respectively, and then 10 μl was taken into 10 μl DMSO solution for 2-fold dilution, and so on. Each compound was gradiently diluted to a highest fold of 256 (gradient dilution of 2, 4, 8, 16, 32, 64, 128, 256 fold).
2.4 To each well, 15 μl 1000-fold diluted inducer C6-HSL (initial concentration of 0.125M) and 8 μl compound solution at each diluted gradient was added; to the DMSO group, 8 μl DMSO was added; to the blank control group, 8 μl LB culture medium was added. Finally, it was ensured that 2 ml culture in each of the 12-well plate was mixed homogeneously.
2.5 The 12-well plate was placed in a 30° C. shaker at 130 rpm and cultured for 10-12 h.
2.6 After the culture was finished, 1 ml culture was taken from each well and put in a 1.5 ml EP tube and then centrifuged at 12000 rpm for 10 mins. The supernatant of the culture was sucked out, and 500 μl DMSO was added to each EP tube to dissolve the purple pigment in the culture. […] 200 μl supernatant pigment was put in a 96-well culture plate, and measured for absorbance value at 585 nm by a Microplate Reader. The absorbance value and the corresponding concentration were plotted to get the IC50 value.
For the molecule `O=C(Nc1ccc(S(=O)(=O)N[C@H]2CCOC2=O)cc1)c1sccc1Br` [Compound 10, (s)-3-bromo-N-(4-(N-(2-oxotetrahydrofuran-3-yl)sulfamoyl)phenyl)thiophene-2-carboxamide], the IC50 is 13.5 ± 0.54 µM.

Regarding `O=C(Nc1ccc(S(=O)(=O)N[C@H]2CCOC2=O)cc1)c1sccc1Cl` [Compound 9, (s)-3-chloro-N-(4-(N-(2-oxotetrahydrofuran-3-yl)sulfamoyl)phenyl)thiophene-2-carb oxamide], the IC50 came out at 9.19 ± 0.34 µM.

Regarding `Cc1ccsc1C(=O)Nc1ccc(S(=O)(=O)N[C@H]2CCOC2=O)cc1` [Compound 8, (s)-3-methyl-N-(4-(N-(2-oxotetrahydrofuran-3-yl)sulfamoyl)phenyl)thiophene-2-carboxamide], the IC50 was 69.2 ± 1.42 µM.
